# Experimental data reported in patent publication US20160222122A1, “INTEGRIN-MODULATING THERAPIES FOR TREATING FIBROTIC DISEASE” (The Johns Hopkins University, priority 2013, published 2016).
# Entries after “also recorded” stand apart in the source; their conditions may differ.
# Experiments:
# [1] = molecular target: T1, integrin αvβ3 in its active conformation (Homo sapiens, UniProt P05106+P06756); test: Specificity of WOW-1 antibody for active integrin αvβ3 in control fibroblasts by flow cytometry; type: cell-based; conditions: 10 mM EDTA, 2 mM MnCl2
# T1 construct: endogenous in cells; host or cells: control fibroblasts (read as primary human dermal fibroblasts from healthy controls)
# Description: For histograms, FlowJo software divides all events into 256 “bins,” which are numerical ranges for the parameter on the x-axis. The percent of maximum (yaxis) is the number of cells in each bin divided by the number of cells in the bin that contains the largest number of cells. Gating for live cells was based on staining with the LIVE/DEAD® Fixable Dead Cell Stain Kit (Invitrogen, cat#L34955). All staining was performed with fluorophore-conjugated primary and isotype control antibodies. All antibodies were either purchased as fluorochrome conjugates or conjugated via amine-based Alexa Fluor antibody labeling kits (cat#A-20181, A20187, A-20185, A-20186, Invitrogen). Mouse and human active αvβ3 was detected fluorophore-conjugated WOW-1 antibody (a gift from Dr. Sanford Shattil). 10 mM Ethylenediaminetetraacetic acid (EDTA) and 2 mM MnCl2 were used as negative and positive controls for αvβ3 activation in flow cytometry experiments (FIG. 20B). Integrin αvβ5, a subtype known to react with the WOW-1 antibody, was monitored in mouse and human cells with a specific antibody (cat#LS-C36943, Lifespan Biosciences).
# [2] = test system: Fbn1D1545E/+ and Fbn1W1572C/+ mice (SSS mouse models); test: In vivo drug treatment of SSS mouse models: clinical stiffness score and stretched skin area/total surface area ratio; conditions: RDEA119 25 mg/kg twice daily by oral gavage, 8 weeks from 1 month of age
# Description: (§1) All antibodies used to treat mice or cells were azide-free. Male mice were treated with β1 integrin activating antibody (β1aAb, Rat Clone 9EG7, BD Biosciences, special-ordered >98% pure and azide-free) or an isotype-matched control (Rat IgG2a, κ, special-ordered >98% pure and azide-free, BD Biosciences) by intraperitoneal injection at 2 mg/kg every five days for twelve weeks, beginning at one month of age. Complete blood cell counts were performed to exclude pancytopenia in β1aAb-treated animals (FIG. 20A). For the TGFβ-Neutralizing trial, three-month-old male mice were treated with pan-specific TGFβ-Neutralizing antibody (Mouse Clone 1D11, catalog #MAB1835, R&D) or an isotype control (Mouse IgG1, Clone 11711, cat#MAB002, R&D) by intraperitoneal injection at 10 mg/kg every other day for twelve weeks.
# RDEA119 was generously provided by Craig J. Thomas, Samarjit Patnaik, and Juan J. Marugan (National Institutes of Health Chemical Genomics Center, Rockville, Md., USA). RDEA119 was reconstituted in 10% 2-hydroxypropyl-betacyclodextrin (Sigma-Aldrich) dissolved in PBS, and administered twice daily by oral gavage at a dose of 25 mg/kg. […]
# A clinical stiffness score was assigned by five blinded observers. […] Mice were assessed in random order. […] Early in the course of studies, the same mice were assessed by the same observer on a different day. […]
# [3] = test system: Fbn1D1545E/+ and Fbn1W1572C/+ mice (SSS mouse models); test: Histology (Masson's trichrome) and immunofluorescence of back skin of treated SSS mice; type: in vivo; conditions: RDEA119 25 mg/kg twice daily oral gavage, 8 weeks
# Description: as §1
# RDEA119 was generously provided by Craig J. Thomas, Samarjit Patnaik, and Juan J. Marugan (National Institutes of Health Chemical Genomics Center, Rockville, Md., USA). […]
# For tissue analysis, animals were euthanized through inhalational halothane (Sigma) or anesthetized with isofluorane. […] Dermal and subcutaneous fat thickness was measured using high-powered fields as described previously. […] Active αvβ3 was detected using the WOW-1 antibody (a gift from Dr. Sanford Shattil) and an anti-mouse Alexa Fluor-594 F(ab′)2 fragment secondary (Invitrogen cat#A11020). […]
# [4] = test system: SSc fibroblasts; test: In vitro TGFβ1 stimulation of SSc dermal fibroblasts, Western blotting of pSMAD3 and pERK1/2; type: cell-based, human
# Description: (§2) All cells were counted at splitting and all treatments were performed at 70% confluency. Cells were serum starved 48 hours prior to stimulation with 2 ng/mL recombinant TGFβ1 (cat#240-B-010, R&D). When TGFβ1 or vehicle was added, cell culture dishes were immediately rocked on the same rocker three times at 5% CO2, 37° to control for mechanical MAPK activation. Before lysate harvest, cells were washed with pre-warmed (42°) 1×PBS (Gibco®). All antibody treatments of human fibroblasts were added during starvation 48 hours before TGFβ1 stimulation while inhibitors SD208 (1 μM) and UO126 (10 μM) (cat#s 616456 and 662005, EMD Millipore) were added 6 hours prior to stimulation. Antibodies used in vitro were mouse IgG1 (0.2 mg/mL, Clone P3.6.2.8.1, cat#16-4714-81, eBiosciences), IgG2a (0.2 mg/mL, Clone eBM2a, cat#16-4724, eBiosciences), αvβ3-blocking (30 μg/mL, Clone LM609, cat#MAB1976Z, Millipore), β1-activating (7 μg/mL, Clone TS2/16, cat#14-0299, eBiosciences), and β1-blocking (0.2 mg/mL, Clone P4C10, cat#MAB1987Z, Millipore) antibodies.
# Before lysate harvest, cells were washed with pre-warmed ([…]) 1×PBS (Gibco®). […] The relative intensities were measured using LiCor Odyssey software. […]
# [5] = test system: SSc fibroblasts; test: qPCR of miR-29a and collagen mRNAs in cultured SSc fibroblasts; type: cell-based, human; conditions: inhibitors SD208 (1 μM), U0126 (10 μM)
# Description: Primary human dermal fibroblasts (HDFs) were derived from skin biopsies from 5 patients with active diffuse systemic sclerosis and 6 healthy controls. Biopsies were taken from the forearm and cultured as previously described. All experiments were performed in cell lines at low (<5) passage. Primary mouse embryonic fibroblasts (MEFs) were derived from E13.5 embryos as described previously. Murine plasmacytoid dendritic cells (pDCs) were isolated from the spleens of wild-type C57B16/J mice using the Plasmacytoid Dendritic Cell Isolation Kit II (cat#130-092-786, Miltenyi Biotec) and a midiMACS™ Separator (cat#130-042-302, Miltenyi Biotec) according to the manufacturer's instructions. The pDC-containing cell suspensions routinely had greater than 95% purity, as detected by flow cytometry.
# as §2
# Total RNA was isolated from cultured cells or tissue using Trizol (Invitrogen) according to the manufacturer's protocol. Quantitative PCR for miR-29a and 18S rRNA was performed using pre-designed Taqman primers and probes (ABI) according to manufacturer's instructions. Relative quantification for each transcript was obtained by normalizing against 18S transcript abundance according to the formula 2^−Ct/2^−Ct(18S).
# T1 sequence (P06756 31-889 limits assumed): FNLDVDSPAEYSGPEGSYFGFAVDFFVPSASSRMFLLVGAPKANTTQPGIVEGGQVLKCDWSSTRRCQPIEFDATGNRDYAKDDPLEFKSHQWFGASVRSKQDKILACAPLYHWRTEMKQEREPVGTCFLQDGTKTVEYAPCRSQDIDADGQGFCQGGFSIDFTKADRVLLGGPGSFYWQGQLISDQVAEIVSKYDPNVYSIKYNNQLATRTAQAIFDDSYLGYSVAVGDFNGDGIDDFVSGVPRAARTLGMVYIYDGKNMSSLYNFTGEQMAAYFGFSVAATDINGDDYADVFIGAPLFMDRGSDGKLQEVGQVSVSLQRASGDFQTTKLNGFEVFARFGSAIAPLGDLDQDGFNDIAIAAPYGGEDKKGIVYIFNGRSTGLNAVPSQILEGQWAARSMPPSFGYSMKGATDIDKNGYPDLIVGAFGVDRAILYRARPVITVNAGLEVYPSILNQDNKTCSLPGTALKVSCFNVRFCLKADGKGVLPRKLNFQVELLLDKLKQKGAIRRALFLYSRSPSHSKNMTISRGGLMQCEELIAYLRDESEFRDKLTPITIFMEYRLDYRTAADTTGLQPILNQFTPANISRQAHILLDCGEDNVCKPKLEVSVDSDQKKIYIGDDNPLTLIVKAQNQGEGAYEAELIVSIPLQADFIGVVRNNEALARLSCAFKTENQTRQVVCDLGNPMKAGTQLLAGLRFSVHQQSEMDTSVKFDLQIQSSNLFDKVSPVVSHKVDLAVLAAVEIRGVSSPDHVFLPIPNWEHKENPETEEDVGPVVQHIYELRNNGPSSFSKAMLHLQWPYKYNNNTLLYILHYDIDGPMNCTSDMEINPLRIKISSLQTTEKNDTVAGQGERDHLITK
# T1 sequence (P06756 891-1048 partner limits assumed): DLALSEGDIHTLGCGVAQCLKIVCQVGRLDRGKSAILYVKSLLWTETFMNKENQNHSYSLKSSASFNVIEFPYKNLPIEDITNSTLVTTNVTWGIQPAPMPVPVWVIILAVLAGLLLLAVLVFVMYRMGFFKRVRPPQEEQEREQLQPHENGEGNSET
# T1 sequence (P05106 27-788): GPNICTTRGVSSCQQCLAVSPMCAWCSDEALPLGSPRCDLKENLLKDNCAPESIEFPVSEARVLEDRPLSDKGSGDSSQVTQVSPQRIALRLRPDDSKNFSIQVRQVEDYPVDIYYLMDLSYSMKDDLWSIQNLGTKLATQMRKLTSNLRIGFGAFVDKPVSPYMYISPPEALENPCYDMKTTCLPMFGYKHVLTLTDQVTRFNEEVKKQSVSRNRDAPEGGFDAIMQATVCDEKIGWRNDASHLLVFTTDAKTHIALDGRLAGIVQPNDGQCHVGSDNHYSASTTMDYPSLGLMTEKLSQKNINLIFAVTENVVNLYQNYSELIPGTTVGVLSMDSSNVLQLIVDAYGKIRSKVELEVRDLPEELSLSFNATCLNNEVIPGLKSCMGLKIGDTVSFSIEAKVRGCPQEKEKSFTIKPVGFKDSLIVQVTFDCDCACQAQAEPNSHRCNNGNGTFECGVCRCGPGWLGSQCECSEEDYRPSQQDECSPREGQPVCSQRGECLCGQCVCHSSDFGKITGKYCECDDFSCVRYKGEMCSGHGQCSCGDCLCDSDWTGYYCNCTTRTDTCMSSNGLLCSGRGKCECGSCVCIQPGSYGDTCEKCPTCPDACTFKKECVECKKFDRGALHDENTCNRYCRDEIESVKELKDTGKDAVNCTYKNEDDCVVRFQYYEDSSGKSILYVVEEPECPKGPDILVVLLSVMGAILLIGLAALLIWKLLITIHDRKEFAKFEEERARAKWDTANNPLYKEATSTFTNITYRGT
structure (smiles),measurement,setting,value
"O=C(O)CN(CCN(CC(=O)O)CC(=O)O)CC(=O)O [EDTA, Ethylenediaminetetraacetic acid]",WOW-1 immunoreactivity,[1],reduced immunoreactivity
[Cl][Mn][Cl] [MnCl2],WOW-1 immunoreactivity,[1],increased immunoreactivity
COc1cc(F)c(F)c(Nc2ccc(I)cc2F)c1NS(=O)(=O)C1(C[C@H](O)CO)CC1 [RDEA119],skin stiffness,[2],prevents skin stiffness
same,dermal collagen accumulation,[3],prevents
same,loss of subcutaneous fat,[3],prevents
Fc1ccc(Cl)cc1-c1nc(Nc2ccncc2)c2nccnc2n1 [SD208],ERK1/2 activation (pERK1/2) in response to TGFβ1,"[4]; 2 ng/mL TGFβ1, 5 minutes, antibodies added 48 hours before, SD208 1 μM 6 hours prior",inhibited; also recorded: sensitive
same,Smad3 phosphorylation (pSMAD3) in response to TGFβ1,"[4]; 2 ng/mL TGFβ1, SD208 1 μM 6 hours prior",sensitive
same,expression of miR-29a,[5],"increased expression of miR-29a, this finding did not reach significance; also recorded: normalized"
same,expression of type IA2 and III collagen genes,[5],normalized
N#CC(=C(/N)Sc1ccccc1N)/C(C#N)=C(\N)Sc1ccccc1N [U0126],expression of miR-29a,[5],increased miR-29a levels; also recorded: increases miR-29a expression
same,expression of type IA2 and III collagen genes,[5],reduced collagen expression; also recorded: reduces type IA2 and III collagen expression
